# Key:
# Set-up in all cases: scale not given: the % may be the effect or the level left
# [1] = biological target: Tyrosine-protein kinase HCK (Homo sapiens) (UniProt P08631); assay: Inhibition of DNA-tagged human HCK assessed as percent of control at 50000 nM by qPCR analysis relative to control
# [2] = biological target: G protein-coupled receptor kinase 4 (Homo sapiens) (UniProt P32298); assay: Inhibition of DNA-tagged human GRK4 assessed as percent of control at 50000 nM by qPCR analysis relative to control
# [3] = biological target: Cyclin-G-associated kinase (Homo sapiens) (UniProt O14976); assay: Inhibition of DNA-tagged human GAK assessed as percent of control at 50000 nM by qPCR analysis relative to control
# [4] = biological target: Mitogen-activated protein kinase 15 (Homo sapiens) (UniProt Q8TD08); assay: Inhibition of DNA-tagged human ERK8 assessed as percent of control at 50000 nM by qPCR analysis relative to control
# [5] = system: Epidermal growth factor receptor (Homo sapiens), P00533 [L858R]; assay: Inhibition of DNA-tagged human EGFR L858R mutant assessed as percent of control at 50000 nM by qPCR analysis relative to control
# [6] = biological target: Epidermal growth factor receptor (Homo sapiens) (UniProt P00533); assay: Inhibition of DNA-tagged human EGFR assessed as percent of control at 50000 nM by qPCR analysis relative to control
# [7] = biological target: Dual specificity tyrosine-phosphorylation-regulated kinase 1A (Homo sapiens) (UniProt Q13627); assay: Inhibition of DNA-tagged human DYRK1A assessed as percent of control at 50000 nM by qPCR analysis relative to control
# [8] = biological target: Myotonin-protein kinase (Homo sapiens) (UniProt Q09013); assay: Inhibition of DNA-tagged human DMPK assessed as percent of control at 50000 nM by qPCR analysis relative to control
# [9] = biological target: Casein kinase I isoform gamma-1 (Homo sapiens) (UniProt Q9HCP0); assay: Inhibition of DNA-tagged human CSNK1G1 assessed as percent of control at 50000 nM by qPCR analysis relative to control
# [10] = biological target: Cyclin-dependent kinase-like 2 (Homo sapiens) (UniProt Q92772); assay: Inhibition of DNA-tagged human CDKL2 assessed as percent of control at 50000 nM by qPCR analysis relative to control
# [11] = biological target: Cyclin-dependent kinase 5 (Homo sapiens) (UniProt Q00535); assay: Inhibition of DNA-tagged human CDK5 assessed as percent of control at 50000 nM by qPCR analysis relative to control
# [12] = biological target: Calcium/calmodulin-dependent protein kinase type 1G (Homo sapiens) (UniProt Q96NX5); assay: Inhibition of DNA-tagged human CAMK1G assessed as percent of control at 50000 nM by qPCR analysis relative to control
# [13] = system: Tyrosine-protein kinase ABL1 (Homo sapiens), P00519 [E255K]; assay: Inhibition of DNA-tagged phosphorylated human ABL1 E255K mutant assessed as percent of control at 50000 nM by qPCR analysis relative to control
# [14] = system: Mast/stem cell growth factor receptor Kit (Homo sapiens), P10721 [V559D]; assay: Inhibition of DNA-tagged human KIT V559D mutant assessed as percent of control at 50000 nM by qPCR analysis relative to control
# [15] = biological target: Tyrosine-protein kinase Lyn (Homo sapiens) (UniProt P07948); assay: Inhibition of DNA-tagged human LYN assessed as percent of control at 50000 nM by qPCR analysis relative to control
# [16] = biological target: Dual specificity mitogen-activated protein kinase kinase 6 (Homo sapiens) (UniProt P52564); assay: Inhibition of DNA-tagged human MEK6 assessed as percent of control at 50000 nM by qPCR analysis relative to control
# [17] = biological target: Macrophage-stimulating protein receptor (Homo sapiens) (UniProt Q04912); assay: Inhibition of DNA-tagged human MST1R assessed as percent of control at 50000 nM by qPCR analysis relative to control
# [18] = biological target: Myosin-IIIa (Homo sapiens) (UniProt Q8NEV4); assay: Inhibition of DNA-tagged human MYO3A assessed as percent of control at 50000 nM by qPCR analysis relative to control
# [19] = biological target: Mitogen-activated protein kinase 14 (Homo sapiens) (UniProt Q16539); assay: Inhibition of DNA-tagged human p38-alpha assessed as percent of control at 50000 nM by qPCR analysis relative to control
# [20] = biological target: Mitogen-activated protein kinase 11 (Homo sapiens) (UniProt Q15759); assay: Inhibition of DNA-tagged human p38-beta assessed as percent of control at 50000 nM by qPCR analysis relative to control
# [21] = biological target: Protein kinase C eta type (Homo sapiens) (UniProt P24723); assay: Inhibition of DNA-tagged human PRKCH assessed as percent of control at 50000 nM by qPCR analysis relative to control
# [22] = biological target: Protein kinase C iota type (Homo sapiens) (UniProt P41743); assay: Inhibition of DNA-tagged human PRKCI assessed as percent of control at 50000 nM by qPCR analysis relative to control
# [23] = biological target: Rho-associated protein kinase 1 (Homo sapiens) (UniProt Q13464); assay: Inhibition of DNA-tagged human ROCK1 assessed as percent of control at 50000 nM by qPCR analysis relative to control
# [24] = biological target: Ribosomal protein S6 kinase alpha-5 (Homo sapiens) (UniProt O75582); assay: Inhibition of DNA-tagged human C-terminal RPS6KA5 kinase domain 2 assessed as percent of control at 50000 nM by qPCR analysis relative to control
# [25] = biological target: SNF-related serine/threonine-protein kinase (Homo sapiens) (UniProt Q9NRH2); assay: Inhibition of DNA-tagged human SNRK assessed as percent of control at 50000 nM by qPCR analysis relative to control
# [26] = biological target: Serine/threonine-protein kinase 16 (Homo sapiens) (UniProt O75716); assay: Inhibition of DNA-tagged human STK16 assessed as percent of control at 50000 nM by qPCR analysis relative to control
# [27] = biological target: Serine/threonine-protein kinase tousled-like 2 (Homo sapiens) (UniProt Q86UE8); assay: Inhibition of DNA-tagged human TLK2 assessed as percent of control at 50000 nM by qPCR analysis relative to control
# [28] = biological target: BDNF/NT-3 growth factors receptor (Homo sapiens) (UniProt Q16620); assay: Inhibition of DNA-tagged human TRKB assessed as percent of control at 50000 nM by qPCR analysis relative to control
# [29] = biological target: Tyrosine-protein kinase receptor TYRO3 (Homo sapiens) (UniProt Q06418); assay: Inhibition of DNA-tagged human TYRO3 assessed as percent of control at 50000 nM by qPCR analysis relative to control
# [30] = biological target: Serine/threonine-protein kinase VRK2 (Homo sapiens) (UniProt Q86Y07); assay: Inhibition of DNA-tagged human VRK2 assessed as percent of control at 50000 nM by qPCR analysis relative to control
# Tyrosine-protein kinase Lyn (Homo sapiens), sequence (P07948 2-512 limits assumed): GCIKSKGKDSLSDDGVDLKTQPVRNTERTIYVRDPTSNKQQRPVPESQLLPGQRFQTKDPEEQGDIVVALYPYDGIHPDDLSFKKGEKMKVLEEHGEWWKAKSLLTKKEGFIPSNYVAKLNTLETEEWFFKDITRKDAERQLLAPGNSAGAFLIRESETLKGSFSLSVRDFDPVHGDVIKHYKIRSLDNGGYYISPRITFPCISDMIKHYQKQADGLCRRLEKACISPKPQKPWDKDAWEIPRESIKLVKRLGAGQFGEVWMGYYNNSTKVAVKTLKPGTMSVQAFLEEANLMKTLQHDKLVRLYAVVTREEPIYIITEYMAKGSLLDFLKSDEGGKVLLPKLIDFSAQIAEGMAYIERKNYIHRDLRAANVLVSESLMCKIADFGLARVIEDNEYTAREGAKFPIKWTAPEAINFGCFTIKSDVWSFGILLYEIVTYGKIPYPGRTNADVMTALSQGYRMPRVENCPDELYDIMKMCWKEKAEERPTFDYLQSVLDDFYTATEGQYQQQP
# Protein kinase C iota type (Homo sapiens), sequence (P41743 whole entry): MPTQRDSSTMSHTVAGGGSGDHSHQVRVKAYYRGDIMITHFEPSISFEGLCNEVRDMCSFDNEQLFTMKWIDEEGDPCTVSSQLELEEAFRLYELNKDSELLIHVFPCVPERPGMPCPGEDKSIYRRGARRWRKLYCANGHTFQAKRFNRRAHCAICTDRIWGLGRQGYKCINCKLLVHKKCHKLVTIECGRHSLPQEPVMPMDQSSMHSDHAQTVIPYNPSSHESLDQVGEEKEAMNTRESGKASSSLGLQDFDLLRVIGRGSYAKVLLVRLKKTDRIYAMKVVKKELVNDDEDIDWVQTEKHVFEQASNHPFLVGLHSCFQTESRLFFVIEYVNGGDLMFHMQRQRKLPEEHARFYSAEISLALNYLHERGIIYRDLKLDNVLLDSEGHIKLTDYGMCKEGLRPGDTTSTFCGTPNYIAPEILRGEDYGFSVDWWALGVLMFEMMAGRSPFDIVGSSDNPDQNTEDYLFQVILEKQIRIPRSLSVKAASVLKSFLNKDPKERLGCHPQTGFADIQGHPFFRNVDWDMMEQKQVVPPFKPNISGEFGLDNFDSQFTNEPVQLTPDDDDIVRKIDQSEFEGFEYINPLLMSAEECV
# Rho-associated protein kinase 1 (Homo sapiens), sequence (Q13464 2-1354 limits assumed): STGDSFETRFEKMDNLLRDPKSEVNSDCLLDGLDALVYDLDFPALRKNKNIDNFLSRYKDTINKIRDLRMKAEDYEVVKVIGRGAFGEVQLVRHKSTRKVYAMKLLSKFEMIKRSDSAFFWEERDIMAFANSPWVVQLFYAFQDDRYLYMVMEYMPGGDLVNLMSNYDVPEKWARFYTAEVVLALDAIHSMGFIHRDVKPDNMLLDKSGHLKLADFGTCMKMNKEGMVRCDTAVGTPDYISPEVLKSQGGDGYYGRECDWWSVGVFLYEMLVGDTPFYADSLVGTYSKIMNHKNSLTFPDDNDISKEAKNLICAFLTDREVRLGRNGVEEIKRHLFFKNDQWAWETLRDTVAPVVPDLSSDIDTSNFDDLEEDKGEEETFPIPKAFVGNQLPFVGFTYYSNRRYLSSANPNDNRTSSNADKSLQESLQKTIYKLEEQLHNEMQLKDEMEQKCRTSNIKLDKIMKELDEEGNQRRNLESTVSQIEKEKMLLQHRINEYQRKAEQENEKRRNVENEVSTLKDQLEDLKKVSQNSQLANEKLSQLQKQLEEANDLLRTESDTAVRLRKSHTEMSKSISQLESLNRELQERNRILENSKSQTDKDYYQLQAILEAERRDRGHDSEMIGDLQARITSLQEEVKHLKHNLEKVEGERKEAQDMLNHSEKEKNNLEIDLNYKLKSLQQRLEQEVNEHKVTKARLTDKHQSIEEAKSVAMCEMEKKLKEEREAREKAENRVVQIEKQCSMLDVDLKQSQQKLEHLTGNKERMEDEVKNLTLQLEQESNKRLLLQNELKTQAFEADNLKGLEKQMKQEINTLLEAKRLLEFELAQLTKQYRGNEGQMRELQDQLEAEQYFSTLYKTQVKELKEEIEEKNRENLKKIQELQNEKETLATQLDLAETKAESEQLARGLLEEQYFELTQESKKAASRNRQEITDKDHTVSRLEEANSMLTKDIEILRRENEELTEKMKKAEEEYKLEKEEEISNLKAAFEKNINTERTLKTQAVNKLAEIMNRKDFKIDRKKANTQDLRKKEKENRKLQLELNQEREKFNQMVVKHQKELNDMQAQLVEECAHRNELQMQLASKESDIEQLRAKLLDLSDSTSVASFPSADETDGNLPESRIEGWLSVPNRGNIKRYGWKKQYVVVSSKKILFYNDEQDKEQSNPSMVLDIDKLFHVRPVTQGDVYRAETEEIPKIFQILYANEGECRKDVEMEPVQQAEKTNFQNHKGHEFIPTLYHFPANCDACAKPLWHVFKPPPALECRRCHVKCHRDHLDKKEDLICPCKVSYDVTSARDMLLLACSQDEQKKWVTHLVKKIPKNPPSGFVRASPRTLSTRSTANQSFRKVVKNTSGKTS
# Cyclin-dependent kinase 5 (Homo sapiens), sequence (Q00535 whole entry, looked up): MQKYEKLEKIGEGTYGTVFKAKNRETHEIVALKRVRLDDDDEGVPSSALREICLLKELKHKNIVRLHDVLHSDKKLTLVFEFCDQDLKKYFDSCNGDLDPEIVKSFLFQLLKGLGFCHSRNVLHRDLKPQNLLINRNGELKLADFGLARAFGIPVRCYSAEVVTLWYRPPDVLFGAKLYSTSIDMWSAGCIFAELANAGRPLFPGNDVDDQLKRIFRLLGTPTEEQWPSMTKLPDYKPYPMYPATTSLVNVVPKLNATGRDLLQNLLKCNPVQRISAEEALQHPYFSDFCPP
# Serine/threonine-protein kinase 16 (Homo sapiens), sequence (O75716 whole entry): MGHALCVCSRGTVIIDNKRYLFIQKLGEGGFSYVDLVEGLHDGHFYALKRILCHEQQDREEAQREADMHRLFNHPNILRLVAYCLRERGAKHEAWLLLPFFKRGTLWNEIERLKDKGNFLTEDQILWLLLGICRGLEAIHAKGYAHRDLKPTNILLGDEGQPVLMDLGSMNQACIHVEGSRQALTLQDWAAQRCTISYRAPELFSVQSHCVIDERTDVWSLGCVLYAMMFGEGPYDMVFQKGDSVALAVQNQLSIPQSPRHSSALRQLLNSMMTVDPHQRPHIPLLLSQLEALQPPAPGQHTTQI
# G protein-coupled receptor kinase 4 (Homo sapiens), sequence (P32298 whole entry, looked up): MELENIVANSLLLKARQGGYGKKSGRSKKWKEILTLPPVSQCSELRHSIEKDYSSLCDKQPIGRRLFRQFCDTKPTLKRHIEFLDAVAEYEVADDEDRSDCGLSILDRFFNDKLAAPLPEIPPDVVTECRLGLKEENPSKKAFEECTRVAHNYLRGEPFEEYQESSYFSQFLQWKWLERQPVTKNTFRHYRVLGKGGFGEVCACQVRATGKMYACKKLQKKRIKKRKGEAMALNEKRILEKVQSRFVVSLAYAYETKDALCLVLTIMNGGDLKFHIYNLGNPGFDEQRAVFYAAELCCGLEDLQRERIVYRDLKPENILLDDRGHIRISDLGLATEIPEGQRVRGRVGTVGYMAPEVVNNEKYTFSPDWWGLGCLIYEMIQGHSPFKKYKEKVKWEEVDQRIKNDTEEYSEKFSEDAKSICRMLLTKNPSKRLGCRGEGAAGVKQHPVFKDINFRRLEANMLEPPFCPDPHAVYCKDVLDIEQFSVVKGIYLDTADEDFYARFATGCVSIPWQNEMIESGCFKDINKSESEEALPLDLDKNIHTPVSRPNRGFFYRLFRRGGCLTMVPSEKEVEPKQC
# Mitogen-activated protein kinase 14 (Homo sapiens), sequence (Q16539 whole entry): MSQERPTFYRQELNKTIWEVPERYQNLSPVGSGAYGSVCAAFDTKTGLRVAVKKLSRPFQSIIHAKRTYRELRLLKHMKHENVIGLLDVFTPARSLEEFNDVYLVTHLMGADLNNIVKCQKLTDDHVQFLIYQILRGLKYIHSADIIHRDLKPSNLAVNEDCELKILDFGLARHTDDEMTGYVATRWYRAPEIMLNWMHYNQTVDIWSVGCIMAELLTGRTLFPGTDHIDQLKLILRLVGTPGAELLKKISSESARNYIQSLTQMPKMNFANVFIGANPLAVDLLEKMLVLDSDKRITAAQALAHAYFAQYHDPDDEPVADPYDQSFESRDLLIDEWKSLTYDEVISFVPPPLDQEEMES
# Ribosomal protein S6 kinase alpha-5 (Homo sapiens), sequence (O75582 whole entry, looked up, the tested form may be a part): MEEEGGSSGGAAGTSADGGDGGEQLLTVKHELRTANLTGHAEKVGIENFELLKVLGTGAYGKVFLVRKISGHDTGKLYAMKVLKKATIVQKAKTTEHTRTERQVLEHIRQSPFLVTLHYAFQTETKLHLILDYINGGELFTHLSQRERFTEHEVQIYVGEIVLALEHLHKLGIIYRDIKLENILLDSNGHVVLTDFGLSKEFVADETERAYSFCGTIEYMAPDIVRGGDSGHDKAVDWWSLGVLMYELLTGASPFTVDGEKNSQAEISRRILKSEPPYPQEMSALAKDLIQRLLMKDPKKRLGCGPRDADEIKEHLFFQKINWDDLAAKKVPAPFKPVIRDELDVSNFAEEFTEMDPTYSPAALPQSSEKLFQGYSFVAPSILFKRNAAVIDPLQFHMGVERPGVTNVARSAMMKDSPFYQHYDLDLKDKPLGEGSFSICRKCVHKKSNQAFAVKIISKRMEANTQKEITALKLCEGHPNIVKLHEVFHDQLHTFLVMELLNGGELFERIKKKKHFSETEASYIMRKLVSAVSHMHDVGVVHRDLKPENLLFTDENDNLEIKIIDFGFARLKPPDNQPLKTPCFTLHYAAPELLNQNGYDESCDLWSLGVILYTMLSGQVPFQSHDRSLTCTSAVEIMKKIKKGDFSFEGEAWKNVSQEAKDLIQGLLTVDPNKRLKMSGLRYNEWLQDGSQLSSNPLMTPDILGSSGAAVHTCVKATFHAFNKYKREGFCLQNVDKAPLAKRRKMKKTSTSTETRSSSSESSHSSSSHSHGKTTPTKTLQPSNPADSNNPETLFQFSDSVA
structure (smiles),measurement,setting,value
CN1C(=O)/C(=C2/C(=O)Nc3ccccc32)c2ccccc21,Activity,[1],100%
same,Activity,[2],100%
same,Activity,[3],98%
same,Activity,[4],96%
same,Activity,[5],89%
same,Activity,[6],100%
same,Activity,[7],100%
same,Activity,[8],84%
same,Activity,[9],95%
same,Activity,[10],100%
same,Activity,[11],100%
same,Activity,[12],85%
same,Activity,[13],100%
same,Activity,[14],91%
same,Activity,[15],100%
same,Activity,[16],100%
same,Activity,[17],92%
same,Activity,[18],100%
same,Activity,[19],100%
same,Activity,[20],100%
same,Activity,[21],100%
same,Activity,[22],100%
same,Activity,[23],87%
same,Activity,[24],100%
same,Activity,[25],81%
same,Activity,[26],89%
same,Activity,[27],88%
same,Activity,[28],88%
same,Activity,[29],77%
same,Activity,[30],79%
